Test results: patent US20040171045A1, “Assay for predicting cell activity” (IsoTis N.V., priority 2001, published 2004)

System: human bone marrow stromal cells (HBMSC)
Assay: Temporal expression of ALP in HBMSC cultures by flow cytometry, (+) dex versus control medium
Assay type: cell-based
Details: 10^−8 M dex, average of day 3 to day 9
Description: The expression of ALP was evaluated by flow cytometry at several culture periods (from day 1 to day 9, three to four measurements were performed for each culture). Briefly, after trypsinisation, cells were washed twice in wash buffer and blocked against non-specific binding (see above). Cells (approx. 0.1-0.3E6/staining) were then resuspended in blocking buffer containing: (a) control mouse anti-human IgG2a (1:5 dilution) and (b) ALP monoclonal antibody (1:10 dilution). After incubation on ice for 45 minutes and washing, antibody reactivity was detected by suspending the cells with blocking buffer containing goat anti-mouse IgGγ-chain-specific-FITC (1:5 dilution). Cells were incubated on ice and in the dark for 30 minutes. After washing, the cells were resuspended in 200 μl of FACS-flow/staining and analyzed using a FACS Calibur apparatus (Becton Dickinson Immunocytometry systems). For each measurement 10,000 events were collected.

C[C@@H]1C[C@H]2[C@@H]3CCC4=CC(=O)C=C[C@]4(C)[C@@]3(F)[C@@H](O)C[C@]2(C)[C@@]1(O)C(=O)CO [dex, dexamethasone]
Ratio between the fraction of ALP+ cells in the (+) dex and control conditions (Donor 1 (U00079)): 1.53
Ratio between the fraction of ALP+ cells in the (+) dex and control conditions (Donor 2 (U00084)): 1.53
Ratio between the fraction of ALP+ cells in the (+) dex and control conditions (Donor 3 (U00169)): 1.40
Ratio between the fraction of ALP+ cells in the (+) dex and control conditions (Donor 4 (U00182-2)): 2.71
Ratio between the fraction of ALP+ cells in the (+) dex and control conditions (Donor 5 (U00212)): 2.53
Ratio between the fraction of ALP+ cells in the (+) dex and control conditions (Donor 6 (U00230)): 1.52
Ratio between the fraction of ALP+ cells in the (+) dex and control conditions (Donor 7 (U00106)): 1.25
Ratio between the fraction of ALP+ cells in the (+) dex and control conditions (Donor 8 (U00173)): 3.72
Ratio between the fraction of ALP+ cells in the (+) dex and control conditions (Donor 9 (U00174)): 1.56
Ratio between the fraction of ALP+ cells in the (+) dex and control conditions (Donor 11 (U00179)): 2.40
Ratio between the fraction of ALP+ cells in the (+) dex and control conditions (Donor 12 (U00090)): 2.56
Ratio between the fraction of ALP+ cells in the (+) dex and control conditions (Donor 13 (U00180)): 1.55
Ratio between the fraction of ALP+ cells in the (+) dex and control conditions (Donor 14 (U00091)): 1.80
